Source: ChEMBL document CHEMBL1153107, “A highly atom economic, chemo-, regio- and stereoselective synthesis and evaluation of spiro-pyrrolothiazoles as antitubercular agents” (2010)
In brackets after ≈: the same amount, converted by molar mass.

Tested on: Mycobacterium tuberculosis
Assay: Antitubercular activity against multidrug-resistant Mycobacterium tuberculosis
Format: functional

With `CN1C/C(=C\c2ccc(Cl)cc2Cl)C(=O)[C@]2(C1)[C@H](c1ccc(Cl)cc1Cl)[C@@H]1CSCN1[C@@]21C(=O)Nc2ccc(Cl)cc21` as the compound, how does the MIC read?
The MIC was 2.4 µM (≈ 1.63 µg/mL).

For `CN1C/C(=C\c2ccc(Cl)cc2Cl)C(=O)[C@]2(C1)[C@H](c1ccc(Cl)cc1Cl)[C@@H]1CSCN1[C@@]21C(=O)Nc2ccc([N+](=O)[O-])cc21`, which MIC is on record?
The MIC was 0.6 µM (≈ 0.414 µg/mL).

`CN1C/C(=C\c2ccc(F)cc2)C(=O)[C@]2(C1)[C@H](c1ccc(F)cc1)[C@@H]1CSCN1[C@@]21C(=O)Nc2ccc([N+](=O)[O-])cc21` was tested. Which MIC did it give?
The MIC was 1.4 µM (≈ 0.824 µg/mL).

For `CN1C/C(=C\c2ccc(Br)cc2)C(=O)[C@]2(C1)[C@H](c1ccc(Br)cc1)[C@@H]1CSCN1[C@@]21C(=O)Nc2ccc([N+](=O)[O-])cc21`, which MIC is on record?
The MIC was 2.3 µM (≈ 1.63 µg/mL).

`CN1C/C(=C\c2ccccc2Cl)C(=O)[C@]2(C1)[C@H](c1ccccc1Cl)[C@@H]1CSCN1[C@@]21C(=O)Nc2ccc([N+](=O)[O-])cc21` was tested. Which MIC did it give?
The MIC was 2.6 µM (≈ 1.62 µg/mL).

How did the MIC turn out when `CN1C/C(=C\c2ccc(F)cc2)C(=O)[C@]2(C1)[C@H](c1ccc(F)cc1)[C@@H]1CSCN1[C@@]21C(=O)Nc2ccc(Cl)cc21` was run?
Its MIC is 2.8 µM (≈ 1.62 µg/mL).

With `CC[C@@H](CO)NCCN[C@@H](CC)CO` [ETHAMBUTOL] as the compound, how does the MIC read?
Its MIC is 61.2 µM (≈ 12.5 µg/mL).

With `NNC(=O)c1ccncc1` [ISONIAZID] as the compound, how does the MIC read?
The MIC was 11.4 µM (≈ 1.56 µg/mL).

How did the MIC turn out when `NC(=O)c1cnccn1` [PYRAZINAMIDE] was run?
Its MIC is 406 µM (≈ 50 µg/mL).

For `CO[C@H]1/C=C/O[C@@]2(C)Oc3c(C)c(O)c4c(O)c(c(/C=N/N5CCN(C)CC5)c(O)c4c3C2=O)NC(=O)/C(C)=C\C=C\[C@H](C)[C@H](O)[C@@H](C)[C@@H](O)[C@@H](C)[C@H](OC(C)=O)[C@@H]1C` [RIFAMPIN], which MIC is on record?
The MIC was 3.8 µM (≈ 3.13 µg/mL).
